Data from the NIST ThermoML archive (doi:10.1016/j.fluid.2017.09.019).
Numbers after ± are expanded uncertainties.

Tests used:
[1] = Liquid; for viscosity / mass density: 101 kPa; for viscosity: Concentric cylinders viscometry; for mass density: Vibrating tube method; for vapor or sublimation pressure: Closed cell (Static) method
[2] = wn = mass fraction of the nth substance listed; settings: 101 kPa, Liquid; for viscosity: Concentric cylinders viscometry; for mass density: Vibrating tube method

CN(CCO)CCO [N-methyldiethanolamine]
[1]
Settings	mass density [kg/m3]	viscosity [mPa·s]
298.15 K	1036.9 ± 2.4	77.29 ± 0.88
308.15 K	1029.8 ± 2.4	44.99 ± 0.51
323.15 K	1018.3 ± 2.4	22.6 ± 0.34

CC(O)CN(C)C (stereo not drawn) [1-(dimethylamino)-2-propanol]
[1]
Settings	mass density [kg/m3]	vapor or sublimation pressure [kPa]	viscosity [mPa·s]
298.15 K	845.4 ± 2.4	–	1.332 ± 0.1
298.49 K	–	4.13 ± 2	–
303.15 K	840.3 ± 2.4	–	1.183 ± 0.1
303.88 K	–	6.59 ± 2	–
308.15 K	835.5 ± 2.4	–	1.059 ± 0.1
308.43 K	–	8.03 ± 2	–
313.15 K	830.7 ± 2.4	–	0.955 ± 0.1
313.34 K	–	10.34 ± 2	–
318.15 K	825.8 ± 2.4	–	0.866 ± 0.1
318.26 K	–	12.51 ± 2	–
323.15 K	820.9 ± 2.4	–	0.788 ± 0.1
323.6 K	–	15.84 ± 2	–
328.15 K	816 ± 2.4	–	0.72 ± 0.1
328.26 K	–	18.73 ± 2	–
333.04 K	–	23.06 ± 2	–
333.15 K	811.1 ± 2.4	–	0.662 ± 0.1

CN(CCO)CCO [N-methyldiethanolamine] + O
[2]
Settings	mass density, 298.15 K [kg/m3]	mass density, 308.15 K [kg/m3]	mass density, 323.15 K [kg/m3]	viscosity, 298.15 K [mPa·s]	viscosity, 308.15 K [mPa·s]	viscosity, 323.15 K [mPa·s]
w1 = 0.2	1014.8 ± 2.4	1010.6 ± 2.4	1002.9 ± 2.4	1.932 ± 0.1	1.51 ± 0.1	1.061 ± 0.1
w1 = 0.3	1025.2 ± 2.4	1021.1 ± 2.4	1013.2 ± 2.4	3.081 ± 0.1	2.263 ± 0.1	1.521 ± 0.1
w1 = 1	1036.9 ± 2.4	1029.8 ± 2.4	1018.3 ± 2.4	77.29 ± 0.88	44.99 ± 0.51	22.6 ± 0.34
